# Columns and labels:
# LH [1] = assay: Plasma LH in ovariectomized female rats (radioimmunoassay); format: in vivo, Sprague Dawley rats
# Protocol: After recovery from surgery, ovariectomized female rats were divided into four groups and treated once a day for five days intravenously, via a bolus injection through the tail vein, as follows: (1) control, 27% HPβCD solution; (2) 0.003 mg/kg E2-CDS dissolved in 27% HPβCD solution; (3) 0.01 mg/kg E2-CDS dissolved in 27% HPβCD solution; and (4) 0.03 mg/kg E2-CDS dissolved in 27% HPβCD solution. A minimal number of ovariectomized (8 to 12) females were used per group. Intravenous treatments either with E2-CDS or HPβCD (controls) were carried out daily for 5 days beginning 2 days prior to the first day of behavior observations, in a volume of 0.05 mL/100 g body weight.
# An experienced and active male rat was placed in the arena 5 minutes prior to the female. […] The lordosis quotient (LQ) expresses the estrogen effect on sexual receptivity and was calculated as follows: LQ=100×number of lordoses/10 mounts The observation of the sexual behavior of each female was carried out, in the case of E2-CDS, every day for 22 days; in the case of EB, investigations were carried out every day for 10 days. […] Citrated blood samples were taken by retro-orbital sinus puncture under light ether anesthesia. The samples were stored at 4EC for one hour, then centrifuged at 1000 g for 10 minutes. Plasma was separated and stored at −80EC until assayed. Plasma LH concentrations from individual samples were measured by double antibody radioimmunoassay kits obtained from Amersham Pharmacia Biotech, Rome, Italy. […] The limit of detection was 15 pg/mL.
# (§1) Behavioral changes were analyzed using the Mann-Whitney U test (Siegel, Nonparametric Statistics for the Behavioral Sciences, New York; McGraw-Hill Book Company, Inc., 1956). The Fisher exact test was used for percentage comparisons (Zar, Biostatistical Analysis, Prentice Hall, Inc., Englewood Cliffs, N.J., 1974). Serum LH data were analyzed for each time and treatment group by analysis of variance (ANOVA) followed by Bonferroni posthoc test.
# FSH [2] = assay: Phase I clinical study: FSH suppression; format: in vivo, postmenopausal women; details: for suppression in FSH levels: first 24 hours post-dose, 2.86 mg buccal
# Source text: (§2) A brief evaluation of the results follows:
# testosterone = assay: Phase I clinical study: serum testosterone; format: in vivo, postmenopausal women; details: for testosterone levels exceeding baseline values: 72 hours after the last dose
# Source text: as §2
# [3] = Phase I clinical study: safety and tolerance; format: in vivo, postmenopausal women; details: 2.86 mg buccal, 12 subjects, both regimens
# Source text: as §2
# FSH [4] = assay: Earlier clinical trial, single 2.5 mg buccal E2-CDS: FSH suppression; format: in vivo, postmenopausal women; details: first 24 hour post-dose, 2.5 mg E2-CDS
# Source text: as §2
# LH [5] = assay: Plasma LH in orchidectomized male rats (radioimmunoassay); format: in vivo, Sprague Dawley rats
# Protocol: (§3) Four weeks following orchidectomy, groups of rats were treated with one of the following drug doses via tail vein injection: E2-CDS 0.03, 0.3, and 3 mg/kg. Blood samples were collected by orbital sinus puncture under light ether anesthesia. The samples were stored at 4EC for one hour and centrifuged at 1,000 g for 10 minutes. Plasma was separated and stored at −80EC until assayed. Plasma LH concentrations from individual samples were measured by double antibody radioimmunoassay kits obtained from Amersham Pharmacia Biotech, Rome, Italy. […] The limit of detection was 15 pg/mL.
# as §1
# (§4) The testing described above was repeated using a dose of 0.03 mg/kg administered as a single i.v. injection, and a dose of 0.01 mg/kg with daily i.v. administration for 10 days. E2-CDS stock solution (40%) was diluted in 27% HPβCD solution.
# [6] = Plasma estradiol in orchidectomized male rats (radioimmunoassay); format: in vivo, Sprague Dawley rats; details: limit of detection 15 pg/mL
# Protocol: as §3, §1, §4
# [7] = 0.03 mg/kg single i.v., first study
smiles,measurement,setting,value
"CN1C=CCC(C(=O)O[C@H]2CC[C@H]3[C@@H]4CCc5cc(O)ccc5[C@H]4CC[C@]23C)=C1 [E2-CDS, 17β-[(1-methyl-1,4-dihydro-3-pyridinyl)carbonyloxy]estra-1,3,5(10)-trien-3-ol]",duration of plasma LH suppression,LH [1]; 0.003 mg/kg i.v. daily for 5 days,up to 15 days
same,duration of statistically significant plasma LH suppression,LH [1]; 0.03 mg/kg i.v. daily for 5 days,up to 18 days
same,effect on plasma LH levels,"LH [1]; all dosage levels tested: 0.003, 0.01 and 0.03 mg/kg i.v. daily for 5 days",suppressed
same,post-study FSH levels below screening/baseline values,FSH [2]; 72 hours after the last dose,14-25%
same,time of maximum FSH suppression,FSH [2]; Group A,13.2±5.7 hours post-dose
same,time of maximum FSH suppression,FSH [2]; Group B,11.8±5.8 hours post-dose
same,suppression in FSH levels,FSH [2]; Group A,15%
same,suppression in FSH levels,FSH [2]; Group B,16%
same,testosterone levels exceeding baseline values,testosterone; Group A,14%
same,testosterone levels exceeding baseline values,testosterone; Group B,28%
same,mean testosterone AUC24 lower than baseline AUC24 (=C0*24),"testosterone; day 1, Group A",31.1%
same,minimum serum testosterone concentration,"testosterone; day 1, Group A",1.3 ± 1.9 ng/dL
same,time to reach minimum testosterone levels,"testosterone; day 1, Group A",6.5 ± 11.7 h
same,mean testosterone AUC24 lower than baseline AUC24 (=C0*24),"testosterone; day 1, Group B",23.0%
same,minimum serum testosterone concentration,"testosterone; day 1, Group B",4.0 ± 3.9 ng/dL
same,time to reach minimum testosterone levels,"testosterone; day 1, Group B",7.3 ± 11.3 h
same,adverse events (AEs) in total,[3],seven
same,seriousness of adverse events,[3],no serious AE was observed
same,extent of maximum FSH suppression,FSH [4],12.5%
same,plasma LH level,"LH [5]; 0.01 mg/kg, 10 daily i.v. injections, day 3 to day 14",significantly reduced
same,plasma LH levels,LH [5]; [7],not reduced
same,plasma LH level,"LH [5]; 0.03 mg/kg single injection, repeated examination, day 3 only",significantly reduced
same,plasma LH levels,"LH [5]; 0.3 mg/kg single i.v., days 1, 3 and 7",significantly reduced
same,plasma LH levels,"LH [5]; 3 mg/kg single i.v., throughout 28 days",suppressed significantly
same,estradiol levels after treatment,[6]; 0.01 mg/kg daily for 10 days i.v.,below the limit of detection
same,estradiol levels after treatment,"[6]; 0.03 mg/kg single dose i.v., repeated study",below the limit of detection
same,estradiol levels after treatment,[6]; [7],below the limit of detection
same,estradiol levels after treatment,"[6]; 0.3 mg/kg single i.v., first study",below the limit of detection

# — patent publication US20050059615A1, “Transmucosal dosage forms for brain-targeted steroid chemical delivery systems” (priority 2003, published 2005)
